Measured values: ChEMBL document CHEMBL1201862, “PubChem BioAssay data set” (2004)
One block for each compound: values may come before it. Activity calls are given as the source filed them.

Experiments:
HEK293 [1] = assay: PMA/Ionomycin-induced IL-8 production in HEK293- NF-kB-Luc stable cells. [Related pubchem assays: 1299, 1295, 1375, 1287, 1281, 1293, 1291, 1289, 1280, 465, 1364, 1282, 1372, 1365, 1367, 1366, 1266, 1269, 1373, 1292, 1290, 1302, 1371, 1283, 1271, 1294, 1374, 1368, 1369 ]; format: functional, cell-based; conditions: Homo sapiens
HEK293 [2] = assay: Cytotoxicity assay in HEK293 cells. [Related pubchem assays (depositor defined):AID1266, AID1269, AID1270, AID1271, AID1280, AID1281, AID1282, AID1283, AID1287, AID1289, AID1290, AID1291, AID1292, AID1293, AID1294, AID1295, AID1299, AID1302, AID1364, AID1365, AID1366, AID1367, AID1369, AID1370, AID1371, AID1372, AID1373, AID1374, AID1375, AID1384 …; format: functional, cell-based; conditions: Homo sapiens
[3] = target: Luciferin 4-monooxygenase (Photinus pyralis, UniProt P08659); assay: In vitro luciferase assay using purified luciferase. [Related pubchem assays: 1299, 1270, 1295, 1375, 1287, 1281, 1293, 1291, 1289, 1280, 465, 1364, 1282, 1372, 1365, 1370, 1367, 1366, 1266, 1373, 1292, 1290, 1302, 1371, 1283, 1271, 1294, 1374, 1368, 1369 ]
HEK293 [4] = assay: TNF Induced NF-kB Luciferase in 293-NF-kB-Luc Stable Cells. [Related pubchem assays: 1266, 1299, 1269, 1373, 1292, 1290, 1302, 1371, 1283, 1270, 1295, 1271, 1375, 1294, 1374, 1281, 1293, 1291, 1289, 1280, 465, 1368, 1364, 1282, 1372, 1365, 1369, 1370, 1367, 1366 ]; format: functional, cell-based; conditions: Homo sapiens
HEK293 [5] = assay: PMA/Ionomycin induced NF-kB luciferase assay in 293- NF-kB-Luc stable cells. [Related pubchem assays: 1299, 1270, 1295, 1375, 1287, 1281, 1293, 1291, 1289, 1280, 465, 1364, 1282, 1372, 1365, 1370, 1367, 1366, 1269, 1373, 1292, 1290, 1302, 1371, 1283, 1271, 1294, 1374, 1368, 1369 ]; format: functional, cell-based; conditions: Homo sapiens
HeLa = assay: viability loss in HeLa cells – cell-based, 24 h, cherry-picked samples, cytotoxicity control, dose response (AID 504726); format: functional; conditions: Homo sapiens;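 also: potency for cytotoxicity as loss of luminescence signal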
Protein Rev = Protein Rev (Human immunodeficiency virus type 1 group M subtype B (isolate WMJ22)(HIV-1), UniProt P05866); assay: inhibitors of Rev protein–RRE RNA complex – biochemical, protein-RNA interaction, dose response (AID 842); set-up: species or system Human immunodeficiency virus 1
[6] = target: Lysosomal acid glucosylceramidase (Homo sapiens, UniProt P04062); assay: Dose response cell-based high throughput screening assay to identify enhancers of beta-glucosidase activity. [Related pubchem assays: 784 ]; format: functional
[7] = target: Serine/threonine-protein phosphatase PP1-alpha catalytic subunit (Homo sapiens, UniProt P62136); assay: inhibition of protein phosphatase 1 activity – biochemical, fluorescence, dose response (AID 2403);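 also: phosphatase turnover of OMFP into fluorescent 3-O-methylfluorescein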
[8] = target: Serine/threonine-protein phosphatase (Homo sapiens, UniProt Q9BPW0); assay: Counterscreen for inhibitors of PP1: fluorescence-based biochemical high throughput dose response assay to identify inhibitors of Protein Phosphatase 5 (PP5). [Related pubchem assays: 2034 (Summary (PP5 inhibitors)), 1987 (PP5 inhibitors in singlate), 2235 (PP1 inhibitors in singlate)]
Chain of Serine/threonine-protein phosphatase (Q9BPW0 whole entry): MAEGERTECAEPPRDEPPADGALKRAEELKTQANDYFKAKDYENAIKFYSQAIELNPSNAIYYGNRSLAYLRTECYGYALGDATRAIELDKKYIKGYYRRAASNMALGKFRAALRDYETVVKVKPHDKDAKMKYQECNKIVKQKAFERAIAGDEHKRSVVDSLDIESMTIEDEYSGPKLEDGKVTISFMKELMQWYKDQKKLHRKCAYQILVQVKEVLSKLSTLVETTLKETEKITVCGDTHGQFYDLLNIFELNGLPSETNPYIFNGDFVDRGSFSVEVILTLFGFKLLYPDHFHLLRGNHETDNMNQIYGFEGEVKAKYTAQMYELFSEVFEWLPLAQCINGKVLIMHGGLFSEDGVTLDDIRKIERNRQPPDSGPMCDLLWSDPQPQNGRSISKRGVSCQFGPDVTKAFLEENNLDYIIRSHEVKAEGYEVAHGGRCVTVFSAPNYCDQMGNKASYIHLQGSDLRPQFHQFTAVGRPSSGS

Chain of Serine/threonine-protein phosphatase PP1-alpha catalytic subunit (P62136 whole entry): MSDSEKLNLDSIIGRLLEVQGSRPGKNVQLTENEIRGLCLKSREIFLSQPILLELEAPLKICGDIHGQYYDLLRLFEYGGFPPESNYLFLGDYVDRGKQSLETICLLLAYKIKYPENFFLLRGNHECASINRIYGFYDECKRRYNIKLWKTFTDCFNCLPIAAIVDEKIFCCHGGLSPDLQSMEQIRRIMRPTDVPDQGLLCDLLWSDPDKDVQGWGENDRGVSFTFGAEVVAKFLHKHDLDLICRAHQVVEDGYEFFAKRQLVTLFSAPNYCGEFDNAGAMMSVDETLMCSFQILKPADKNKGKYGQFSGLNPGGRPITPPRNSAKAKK
Chain of Luciferin 4-monooxygenase (P08659 whole entry): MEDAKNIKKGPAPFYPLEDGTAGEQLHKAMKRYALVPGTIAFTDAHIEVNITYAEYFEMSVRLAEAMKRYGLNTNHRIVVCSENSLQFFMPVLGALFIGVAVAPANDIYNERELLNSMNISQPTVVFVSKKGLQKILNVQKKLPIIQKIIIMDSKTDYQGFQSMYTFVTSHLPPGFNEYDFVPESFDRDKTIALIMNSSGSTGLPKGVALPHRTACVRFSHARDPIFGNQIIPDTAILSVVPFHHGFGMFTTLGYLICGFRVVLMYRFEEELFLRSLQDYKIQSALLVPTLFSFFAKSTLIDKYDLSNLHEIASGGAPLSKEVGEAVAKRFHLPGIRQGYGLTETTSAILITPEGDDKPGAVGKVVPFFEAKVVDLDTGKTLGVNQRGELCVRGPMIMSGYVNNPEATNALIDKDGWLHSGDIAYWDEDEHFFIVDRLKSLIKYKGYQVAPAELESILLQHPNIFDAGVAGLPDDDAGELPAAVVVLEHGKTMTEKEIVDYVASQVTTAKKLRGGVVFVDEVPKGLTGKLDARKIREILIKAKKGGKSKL
Chain of Lysosomal acid glucosylceramidase (P04062 whole entry): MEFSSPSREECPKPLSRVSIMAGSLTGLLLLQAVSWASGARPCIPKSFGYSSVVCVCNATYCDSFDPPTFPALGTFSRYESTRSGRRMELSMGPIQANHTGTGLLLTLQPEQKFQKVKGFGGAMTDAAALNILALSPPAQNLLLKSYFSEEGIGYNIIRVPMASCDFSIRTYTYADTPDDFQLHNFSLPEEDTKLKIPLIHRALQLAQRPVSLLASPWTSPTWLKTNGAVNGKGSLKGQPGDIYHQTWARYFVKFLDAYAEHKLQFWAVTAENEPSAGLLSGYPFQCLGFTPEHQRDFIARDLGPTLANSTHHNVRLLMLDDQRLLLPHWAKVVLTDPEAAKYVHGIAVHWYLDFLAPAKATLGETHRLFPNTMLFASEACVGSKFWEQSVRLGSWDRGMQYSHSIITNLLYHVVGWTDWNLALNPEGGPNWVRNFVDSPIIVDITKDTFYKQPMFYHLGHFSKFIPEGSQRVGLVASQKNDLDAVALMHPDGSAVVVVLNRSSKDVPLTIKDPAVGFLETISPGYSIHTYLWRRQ
Chain of Protein Rev (P05866 whole entry): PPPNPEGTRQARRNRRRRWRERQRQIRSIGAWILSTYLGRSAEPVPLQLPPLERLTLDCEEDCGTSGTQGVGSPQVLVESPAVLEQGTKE

SMILES: CN(C)c1ncnc2c1ncn2[C@@H]1OC(CO)C(O)C1O (stereo not given in full)
EC50 (HEK293 [1]): > 8 µM (not active) | EC50 (HEK293 [2]): 12.2 µM (inactive) | EC50 [3]: > 8 µM (not active) | EC50 (HEK293 [4]): > 8 µM (not active) | EC50 (HEK293 [5]): 1.85 µM (active)

SMILES: Brc1ccc(-c2noc(COc3ccc4c(c3)CCC4)n2)o1
AC50 (HeLa): 337 µM (active)

SMILES: CCOC(=O)c1c(C)n(C)c2ccc(O)c(CN(C)C)c12
IC50 (Protein Rev): > 79.4 µM (not active)

EC50 [6]: > 50 µM (not active)
SMILES: CCOC(=O)c1oc2c(C)c(O)ccc2c(=O)c1-c1nncn1-c1ccccc1

SMILES: O=C(O)C1C2CCC(O2)C1C(=O)NC1CCCCC1 (stereo not given)
IC50 [7]: 3.7 µM (active) | IC50 [8]: 3.03 µM (active)
